Measured values taken from BigSolDB 2.1.

Conditions: 298.15 K

CCC(C)n1ncn(-c2ccc(N3CCN(c4ccc(OC[C@H]5CO[C@](Cn6cncn6)(c6ccc(Cl)cc6Cl)O5)cc4)CC3)cc2)c1=O (mixture of isomers)
Conditions	solubility (mole fraction)
in DMAc	0.0118
in DMF	0.0107
in DMSO	0.00175
in NMP	0.022
in THF	0.00212
in acetone	0.000637
in acetonitrile	7.95e-05
in chloroform	0.0504
in dichloromethane	0.0327
in ethanol	1.91e-05
in isopropanol	2.14e-05
in methanol	3.79e-05
in n-butanol	2.3e-05
in n-propanol	2.05e-05
in transcutol	0.00073
in water	2.43e-07
